Source: patent publication US6710168B1, “Glycopeptide antibiotics, combinatorial libraries of glycopeptide antibiotics and methods of producing same” (The Trustees of the University of Princeton, priority 1999, dated 2004)
Values after ≈ are worked out from the molar mass of the structure shown. Where two headings read alike, the source gives them in different places.

Legend:
Assay type in all cases: cell-based
[1] = system: gentamicin, streptmycin, vancomycin resistant Enterococcus faecalis (ATCC 51299); test: microbe, parasite or virus in culture; details: for MIC: Enterococcus faecalis, ATCC51299, read-out: MIC VREF; for MIC VREF: Enterococcus faecalis ATCC51299, vancomycin resistance
Summary of the method: (§1)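 Broth microdilution in cation-adjusted Mueller-Hinton broth, 12-step two-fold series from 5 μg/mL to […], mixed 1:1 with 10^6 CFU/mL cell suspension and incubated 24 h at 37 °C. MTT (1 mg/mL solution) is then added for 30 min (S. aureus, MRSA) or 2 h (E. faecalis strains). MIC = lowest concentration inhibiting growth.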

[2] = system: Bacillus cereus (ATCC 11778); test: MIC susceptibility test, microdilution with MTT readout; details: for MIC: Bacillus cereus, ATCC11778, read-out: MIC BC; for MIC BC: Bacillus ceres ATCC11778
Summary of the method: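 Bacillus cereus ATCC® 11778 susceptibility was measured by broth microdilution in 96-well microplates using Cation Adjusted Mueller-Hinton broth. Samples were diluted two-fold from 5 μg/mL over 12 steps. Each well combined 100 μL of cell suspension (10^6 CFU/mL) with 100 μL of antibiotic solution and was incubated at 37° C. for 24 h. Then 50 μL of MTT (1 mg/mL) was added for 30 min, and MIC (μg/mL) was read as the lowest concentration inhibiting growth.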

[3] = system: Staphylococcus aureus (ATCC 29213); test: as above
Summary of the method: as §1

[4] = system: Enterococcus faecalis (ATCC 29212); test: as above
Summary of the method: as §1

[5] = system: Methicillin resistant Staphylococcus aureus (ATCC 33591); test: as above; details: for MIC: ATCC 3359 / ATCC 33591 / MRSA, read-out: MIC MRSA
Summary of the method: as §1

[6] = system: Enterococcus faecium CL5137, VanA; test: MIC susceptibility test; details: for MIC: read-out: MIC CL5137
[7] = system: Enterococcus faecalis CL5244, VanB; test: MIC susceptibility test; details: for MIC: read-out: MIC CL5244
Summary of the method: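 MTT-based broth microdilution in cation-adjusted Mueller-Hinton broth; two-fold 12-step dilutions […], inoculum 10^6 CFU/mL, 37° C for 24 h.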

[8] = Staphylococcus aureus ATCC29213, read-out: MIC SA
[9] = Enterococcus faecalis ATCC29212, read-out: MIC EF
[10] = Staphylococcus aureus ATCC3359, Methicillin resistance
[11] = Enterococcus faecium CL5137, VanA
[12] = Enterococcus faecalis CL5244, VanB
[13] = Staphylococcus aureus ATCC29213
[14] = Enterococcus faecalis ATCC29212

Row | SMILES | MIC [1] [µg/mL] | MIC [2] [µg/mL] | MIC [3, 8] [µg/mL] | MIC [4, 9] [µg/mL] | MIC [5, 10] [µg/mL] | MIC [6, 11] [µg/mL] | MIC [7, 12] [µg/mL] | MIC VREF [1] [µg/mL] | MIC BC [2] [µg/mL] | MIC SA [3, 13] [µg/mL] | MIC EF [4, 14] [µg/mL] | MIC MRSA [5, 10] [µg/mL] | MIC CL5137 [6, 11] | MIC CL5244 [7, 12] [µg/mL] | MIC ([3]; Staphylococcus aureus, ATCC29213, read-out: MIC SA) [µg/mL] | MIC ([4]; Enterococcus faecalis, ATCC29212, read-out: MIC EF) [µg/mL] | MIC ([5]; Staphylococcus aureus) [µg/mL] | MIC ([6]; Enterococcus faecium) [µg/mL] | MIC ([7]; Enterococcus faecalis) [µg/mL]
1 | C=C1N[C@@H]2C(=O)N[C@@H](C(=O)O)c3cc(O)cc(O)c3-c3cc(ccc3O)C1NC(=O)[C@@H]1NC(=O)[C@H](CC(N)=O)NC(=O)[C@H](NC(=O)[C@H](CC(C)C)NC)[C@H](O)c3ccc(c(Cl)c3)Oc3cc1cc(c3OC1OC(CSc3nc(-c4ccccc4)c(-c4ccccc4)o3)C(O)C(O)C1OC1CC(C)(N)C(O)C(C)O1)Oc1ccc(cc1Cl)[C@H]2O (some centres unmarked) [LXIX, Glucose-C6-2-thio-4,5-diphenyloxazole Vancomycin] | 0.32 (≈ 0.19 µM) | 1.3 (≈ 0.773 µM) | 1.9 (≈ 1.13 µM) | 0.24 (≈ 0.143 µM) | 2.5 (≈ 1.49 µM) | 50 (≈ 29.7 µM) | 0.6 (≈ 0.357 µM) | – | – | – | – | – | – | – | – | – | – | – | –
2 | CCCCCCCCCCNC1(C)CC(OC2C(Oc3c4cc5cc3Oc3ccc(cc3Cl)C(O)C3NC(=O)C(NC(=O)C5NC(=O)C(CC(N)=O)NC(=O)C(NC(=O)C(CC(C)C)NC)C(O)c5ccc(c(Cl)c5)O4)c4ccc(O)c(c4)-c4c(O)cc(O)cc4C(C(=O)O)NC3=O)OC(CSc3nc(N)n[nH]3)C(O)C2O)OC(C)C1O (centres unmarked) [LXXII, Vancosamine-N-decyl-glucose-C6-S-3-amino-5-mercapto-1,2,4-triazole Vancomycin] | – | – | – | – | – | – | – | 0.32 (≈ 0.19 µM) | 2.5 (≈ 1.48 µM) | 3.8 (≈ 2.25 µM) | 0.32 (≈ 0.19 µM) | 1.9 (≈ 1.13 µM) | 6.3 µg/mL (≈ 3.73 µM) | 0.3 (≈ 0.178 µM) | – | – | – | – | –
3 | CN[C@@H](CC(C)C)C(=O)N[C@H]1C(=O)N[C@@H](CC(N)=O)C(=O)N[C@H]2C(=O)NC3C(=O)N[C@H](C(=O)N[C@@H](C(=O)O)c4cc(O)cc(O)c4-c4cc3ccc4O)[C@H](O)c3ccc(c(Cl)c3)Oc3cc2cc(c3OC2OC(CSc3nc(C)cc(O)n3)C(O)C(O)C2OC2CC(C)(N)C(O)C(C)O2)Oc2ccc(cc2Cl)[C@H]1O (some centres unmarked) [LXXVIII, Glucose-C6-2-thio-4-hydroxy-6-methylpyrimidine Vancomycin] | 2.5 (≈ 1.59 µM) | 0.63 (≈ 0.4 µM) | 1 (≈ 0.636 µM) | 0.63 (≈ 0.4 µM) | 1.3 (≈ 0.826 µM) | > 50 | 6.3 (≈ 4 µM) | – | – | – | – | – | – | – | – | – | – | – | –
4 | CNC(CC(C)C)C(=O)NC1C(=O)NC(CC(N)=O)C(=O)NC2C(=O)NC3C(=O)NC(C(=O)NC(C(=O)O)c4cc(O)cc(O)c4-c4cc3ccc4O)C(O)c3ccc(c(Cl)c3)Oc3cc2cc(c3OC2OC(CNCc3ccc(-c4ccc(Cl)cc4)o3)C(O)C(O)C2OC2CC(C)(NCc3ccc(-c4ccc(Cl)cc4)cc3)C(O)C(C)O2)Oc2ccc(cc2Cl)C1O (centres unmarked) [L, Glucose-C6-N-5-(4-chlorophenyl)furan-1-methylene-vancosamine-N-4-(4-chlorophenyl)benzyl Vancomycin] | – | – | – | – | – | – | – | 1.0 (≈ 0.544 µM) | 3.8 (≈ 2.07 µM) | 5.0 (≈ 2.72 µM) | 1.3 (≈ 0.707 µM) | 2.5 (≈ 1.36 µM) | 6.3 µg/mL (≈ 3.42 µM) | 0.8 (≈ 0.435 µM) | – | – | – | – | –
5 | CN[C@@H](CC(C)C)C(=O)N[C@H]1C(=O)N[C@@H](CC(N)=O)C(=O)N[C@H]2C(=O)NC3C(=O)N[C@H](C(=O)N[C@@H](C(=O)O)c4cc(O)cc(O)c4-c4cc3ccc4O)[C@H](O)c3ccc(c(Cl)c3)Oc3cc2cc(c3OC2OC(CSc3nnc(N)s3)C(O)C(O)C2OC2CC(C)(N)C(O)C(C)O2)Oc2ccc(cc2Cl)[C@H]1O (some centres unmarked) [LXXVI, Glucose-C6-2-thio-5-amino-1,3,4-thiadiazole Vancomycin] | > 5 | 0.63 (≈ 0.403 µM) | 0.63 (≈ 0.403 µM) | 1.3 (≈ 0.831 µM) | 0.63 (≈ 0.403 µM) | > 50 | 19 (≈ 12.1 µM) | – | – | – | – | – | – | – | – | – | – | – | –
6 | CNC(CC(C)C)C(=O)NC1C(=O)NC(CC(N)=O)C(=O)NC2C(=O)NC3C(=O)NC(C(=O)NC(C(=O)O)c4cc(O)cc(O)c4-c4cc3ccc4O)C(O)c3ccc(c(Cl)c3)Oc3cc2cc(c3OC2OC(CNC(=O)c3ccc(-c4ccc(Cl)cc4)cc3)C(O)C(O)C2OC2CC(C)(N)C(O)C(C)O2)Oc2ccc(cc2Cl)C1O (centres unmarked) [XXXVIII, Glucose-C6-N-4-(4-chlorophenyl)benzoyl Vancomycin] | – | – | – | – | – | – | – | 0.16 (≈ 0.0962 µM) | 0.32 (≈ 0.192 µM) | 1.0 (≈ 0.601 µM) | 0.32 (≈ 0.192 µM) | 0.63 (≈ 0.379 µM) | 50< μg/mL | 0.4 (≈ 0.241 µM) | – | – | – | – | –
7 | CNC(CC(C)C)C(=O)NC1C(=O)NC(CC(N)=O)C(=O)NC2C(=O)NC3C(=O)NC(C(=O)NC(C(=O)O)c4cc(O)cc(O)c4-c4cc3ccc4O)C(O)c3ccc(c(Cl)c3)Oc3cc2cc(c3OC2OC(CO)C(O)C(O)C2OC2CC(C)(NCc3ccc(-c4ccc(Cl)cc4)cc3)C(O)C(C)O2)Oc2ccc(cc2Cl)C1O (centres unmarked) [N-4-(4-chlorophenyl)benzyl vancomycin, reference compound] | – | – | – | – | – | – | – | 0.08 (≈ 0.0485 µM) | 0.08 (≈ 0.0485 µM) | 0.16 (≈ 0.097 µM) | 0.08 (≈ 0.0485 µM) | 0.08 (≈ 0.0485 µM) | 13 µg/mL (≈ 7.88 µM) | 0.4 (≈ 0.242 µM) | – | – | – | – | –
8 | CN[C@H](CC(C)C)C(=O)N[C@H]1C(=O)N[C@@H](CC(N)=O)C(=O)N[C@H]2C(=O)N[C@H]3C(=O)N[C@H](C(=O)N[C@H](C(=O)O)c4cc(O)cc(O)c4-c4cc3ccc4O)[C@H](O)c3ccc(c(Cl)c3)Oc3cc2cc(c3OC2OC(CNC(=O)c3cnc4ccccc4n3)C(O)C(O)C2OC2CC(C)(NCc3ccc(-c4ccc(Cl)cc4)cc3)C(O)C(C)O2)Oc2ccc(cc2Cl)[C@H]1O (some centres unmarked) [LII, Glucose-C6-N-2-quinoxaloyl-vancosamine-N-4-(4-chlorophenyl)benzyl Vancomycin] | 0.16 (≈ 0.0886 µM) | 1.9 (≈ 1.05 µM) | – | – | – | – | – | – | – | – | – | – | – | – | 5 (≈ 2.77 µM) | 0.08 (≈ 0.0443 µM) | 5 (≈ 2.77 µM) | 3.2 (≈ 1.77 µM) | 0.2 (≈ 0.111 µM)
9 | CNC(CC(C)C)C(=O)NC1C(=O)NC(CC(N)=O)C(=O)NC2C(=O)NC3C(=O)NC(C(=O)NC(C(=O)O)c4cc(O)cc(O)c4-c4cc3ccc4O)C(O)c3ccc(c(Cl)c3)Oc3cc2cc(c3OC2OC(CNCc3ccc(-c4ccc(Cl)cc4)cc3)C(O)C(O)C2OC2CC(C)(N)C(O)C(C)O2)Oc2ccc(cc2Cl)C1O (centres unmarked) [XXIX, Glucose-C6-N-4-(4-chlorophenyl)benzyl Vancomycin] | – | – | – | – | – | – | – | 0.63 (≈ 0.382 µM) | 0.63 (≈ 0.382 µM) | 0.63 (≈ 0.382 µM) | 0.63 (≈ 0.382 µM) | 0.63 (≈ 0.382 µM) | 50 µg/mL (≈ 30.3 µM) | 0.6 (≈ 0.364 µM) | – | – | – | – | –
10 | CCCCCCCCCCNC1(C)CC(OC2C(Oc3c4cc5cc3Oc3ccc(cc3Cl)C(O)C3NC(=O)C(NC(=O)C5NC(=O)C(CC(N)=O)NC(=O)C(NC(=O)C(CC(C)C)NC)C(O)c5ccc(c(Cl)c5)O4)c4ccc(O)c(c4)-c4c(O)cc(O)cc4C(C(=O)O)NC3=O)OC(CO)C(O)C2O)OC(C)C1O (centres unmarked) [N-decyl vancosamine vancomycin, reference compound] | – | – | – | – | – | – | – | 0.32 (≈ 0.201 µM) | 0.32 (≈ 0.201 µM) | 0.63 (≈ 0.396 µM) | 0.16 (≈ 0.101 µM) | 0.48 (≈ 0.302 µM) | 25 µg/mL (≈ 15.7 µM) | 3.2 (≈ 2.01 µM) | – | – | – | – | –
11 | CN[C@@H](CC(C)C)C(=O)N[C@H]1C(=O)N[C@@H](CC(N)=O)C(=O)N[C@H]2C(=O)NC3C(=O)N[C@H](C(=O)N[C@@H](C(=O)O)c4cc(O)cc(O)c4-c4cc3ccc4O)[C@H](O)c3ccc(c(Cl)c3)Oc3cc2cc(c3OC2OC(CSc3nnc(N)s3)C(O)C(O)C2OC2CC(C)(NCc3ccc(-c4ccc(Cl)cc4)cc3)C(O)C(C)O2)Oc2ccc(cc2Cl)[C@H]1O (some centres unmarked) [LXXXIII, N-4-(4-Chlorophenyl)benzylvancosamine-glucose-C6-2-thio-5-amino-1,3,4-thiadiazole Vancomycin] | 0.32 (≈ 0.181 µM) | 0.32 (≈ 0.181 µM) | 0.48 (≈ 0.272 µM) | 0.16 (≈ 0.0906 µM) | 0.48 (≈ 0.272 µM) | 3.2 (≈ 1.81 µM) | 0.2 (≈ 0.113 µM) | – | – | – | – | – | – | – | – | – | – | – | –
